Data as given in US20040242669A1, “Method of treating deficits associated with brain injury” (priority 2003, published 2004).
Marks after values point to notes of the source that are not given here.

Assays:
Format in all cases: in vivo, rat
[1] = system: animals with hypobaric hypoxia-induced amnesia; experiment: Step-through passive avoidance, hypobaric hypoxia-induced amnesia; details: for Latency: hypobaric hypoxia, median latency to re-enter dark box, max 300 s
Method: (§1) Male rats of the Sprague-Dawley strain (purchased from Charles River, Italy) weighing 280±20 g were used throughout all experiments. The animals were housed two-three to a cage under a constant light-dark cycle (lights on between 8.00 and 20.00) at 21° C. Commercial food and tap water were available ad libitum. All animals were used only once in the behavioral experiments.
(§2) Ropinirole (ropinirole hydrochloride, SmithKline Beecham, Italy) and dihydroergocryptine (DHECP) α-dihydroergocryptine methanesulfonate, Monsanto, Italy) were dissolved in saline and injected subcutaneously (s.c.) at the dose of 0.5 and 1 mg/kg/day for 7 days. In the experiments with kainate-induced convulsions, ropinirole or DHECP were injected intravenously (i.v.) 30 min prior, and again at the same time of the intracerebroventricular (i.c.v) injection on kainic acid; Control animals received an injection of saline alone with the same procedure.
Passive avoidance behaviour was studied in a step-through type of passive avoidance situation (Ader et al., Psycon Sci, 26, 125-128 (1972)). Briefly the rats were adapted to the apparatus consisting of a large dark compartment equipped with a grid floor and a mesh-covered elevated runway attached to the front centre of the dark chamber. Adaptation training was followed by a single trial in which the rats were placed on the elevated platform and allowed to enter the dark box. Three such trials were given on the next day with an intertrial interval of 5 min after the trial. The rats received a single 2-s unavoidable scrambled foot-shock (0.20 mA) immediately after entering the dark compartment. Retention of the response was tested 24 h after the learning trial. The rats were placed on the elevated runway and the latency to re-enter the shock compartment was recorded up to a maximum of 300 s.
(§3) In the first experiment, the effects of ropinirole or DHECP were studied on amnesia induced by hypobaric hypoxia in rats. After a 7-day pretreatment with ropinirole, DHECP or saline, a group of animals was subjected to acute hypobaric hypoxia by means of a hypobaric chamber (Chantiers et Ateliers de Bretagne, France) causing depression to 300 mmHg (Boismare et al., Gerentology, 24, 6-13 (1978)). After 3 min in the chamber, the animals were removed and admitted for behavioral testing. Intact control rats were also introduced into the chamber but not subjected to hypobaric hypoxia.

[2] = system: animals with chronic brain occlusive ischemia; experiment: Open field spontaneous motor activity, chronic brain occlusive ischemia; details: for Ambulation / Defecation / Grooming / Rearing: 5 min open field, mean ± S.E.M.
Method: as §1
(§4) A number of animals were subjected to a manipulation of the four major arteries of the brain with a method similar to that described by Pulsinelli et al., Ann. Neurol, 11, 491-498 (1982). Both vertebral arteries were cauterised under sodium pentobarbital anaesthesia and polyethylene cuffs PE-10 were placed loosely around the common carotid arteries without completely interrupting carotid blood flow. Two months after operation, all surviving animals showing no neurological gross abnormalities were admitted to drug treatment. Animals undergoing a sham operation were considered as controls.
as §2
Spontaneous motor activity was scored in a circular open field arena as described by Weijnen and Slangen, Pituitary, Adrenal and the Brain, pp221-235 (1982). Animals were put inside a circular lit-up arena, with the bottom divided into 27 areas of equal size.
(§5) Animals with 2-month chronic brain occlusive ischemia, were subjected to a treatment with ropinirole, DHECP or saline for 7 days. At the end of treatment, the animals were admitted to behavioral testing. Controls were those animals with sham manipulation of brain arteries.

[3] = system: reduced glutathione in brain areas of rats subjected to hypobaric hypoxia; experiment: Brain glutathione content and redox index after hypobaric hypoxia; details: for reduced glutathione content: mean ± S.E.M.
Method: (§6) At the end of the behavioral studies, the brain of animals sacrificed by decapitation were taken and rapidly frozen for analysis. Dissection and weighing were carried out at −25° C. The frozen forebrains were immediately powered under liquid nitrogen by an electromechanical apparatus and stored at […]. The assay of reduced and oxidized glutathione by 5,5′-dithibis-(2-nitrobenzoic acid) in frozen forebrain powder was carried out within 3 h, utilizing perchloric acid and N-ethylmaleimide in presence of ethylenediamidetetraacetic acid for the extraction procedure (Tietze, Anal Biochem, 27, 502-522, (1969)).
as §3
(§7) All animals used for hypobaric hypoxia induced amnesia and for chronic brain occlusive ischemia was sacrificed at the end behavioral procedure for biochemical analyses.

[4] = system: reduced glutathione in brain areas of rats subjected to chronic brain occlusive ischemia; experiment: Brain glutathione content and redox index after chronic brain occlusive ischemia; details: for reduced glutathione content: mean ± S.E.M.
Text: as §4, §6, §5, §7

`CC(C)C[C@H]1C(=O)N2CCC[C@H]2[C@]2(O)O[C@](NC(=O)[C@@H]3C[C@@H]4c5cccc6[nH]cc(c56)C[C@H]4N(C)C3)(C(C)C)C(=O)N12` [DHECP, α-dihydroergocryptine methanesulfonate] was tested, and the “latency to re-enter the dark box (effect of treatment, in words)” value ([1]; hypobaric hypoxia-induced amnesia, summary of Table 1) was “increase in these behavioral parameters, however, for the latter only with the greater dose”, the Latency ([1]; 0.5 mg/kg/day s.c. for 7 days) was 30^e and the Latency ([1]; 1 mg/kg/day s.c. for 7 days) was 74^f. For the same compound, the Ambulation ([2]; 0.5 mg/kg/day s.c. for 7 days) was 68.9 ± 6.6^a,e, the Defecation ([2]; 0.5 mg/kg/day s.c. for 7 days) was 3.4 ± 0.9^a and the Grooming ([2]; 0.5 mg/kg/day s.c. for 7 days) was 22.2 ± 2.3. For the same compound, the Rearing ([2]; 0.5 mg/kg/day s.c. for 7 days) was 16.4 ± 1.3^e, the Ambulation ([2]; 1 mg/kg/day s.c. for 7 days) was 73.1 ± 5.6^a,e and the Defecation ([2]; 1 mg/kg/day s.c. for 7 days) was 3.7 ± 1.3^a. The Grooming ([2]; 1 mg/kg/day s.c. for 7 days) was 23.3 ± 2.1, the Rearing ([2]; 1 mg/kg/day s.c. for 7 days) was 16.5 ± 1.9^e and the “ambulation and rearing (effect of treatment, in words)” value ([2]; to a level similar to that of intact controls) was “increased”. For the same compound, the “glutathione redox index (glutathione reduced/glutathione oxidized ratio)” value ([3]; Cortex, 0.5 mg/kg) was 2.5, the reduced glutathione content ([3]; Cortex, 0.5 mg/kg) was 2.2 ± 0.2 mM and the “glutathione redox index (glutathione reduced/glutathione oxidized ratio)” value ([3]; Cortex, 1 mg/kg) was 2.3. For the same compound, the reduced glutathione content ([3]; Cortex, 1 mg/kg) was 2.5 ± 0.2 mM, the “glutathione redox index (glutathione reduced/glutathione oxidized ratio)” value ([3]; Hippocampus, 0.5 mg/kg) was 1.8 and the reduced glutathione content ([3]; Hippocampus, 0.5 mg/kg) was 2.1 ± 0.2 mM. The “glutathione redox index (glutathione reduced/glutathione oxidized ratio)” value ([3]; Hippocampus, 1 mg/kg) was 2.2, the reduced glutathione content ([3]; Hippocampus, 1 mg/kg) was 2.4 ± 0.2 mM and the “glutathione redox index (glutathione reduced/glutathione oxidized ratio)” value ([3]; Hypothalamus, 0.5 mg/kg) was 2.6. For the same compound, the reduced glutathione content ([3]; Hypothalamus, 0.5 mg/kg) was 2.8 ± 0.2 mM, the “glutathione redox index (glutathione reduced/glutathione oxidized ratio)” value ([3]; Hypothalamus, 1 mg/kg) was 2.8 and the reduced glutathione content ([3]; Hypothalamus, 1 mg/kg) was 2.8 ± 0.2 mM. For the same compound, the “glutathione redox index (glutathione reduced/glutathione oxidized ratio)” value ([3]; Striatum, 0.5 mg/kg) was 0.7, the reduced glutathione content ([3]; Striatum, 0.5 mg/kg) was 1.8 ± 0.2 mM and the “glutathione redox index (glutathione reduced/glutathione oxidized ratio)” value ([3]; Striatum, 1 mg/kg) was 1.7. The reduced glutathione content ([3]; Striatum, 1 mg/kg) was 2.5 ± 0.2 mM, the “reduced glutathione content and glutathione redox index (effect of treatment, in words)” value ([3]; cortex, hippocampus and hypothalamus, both doses) was “increase” and the “reduced glutathione content and glutathione redox index (effect of treatment, in words)” value ([3]; striatum) was “only with the greater dose”. The “glutathione redox index (glutathione reduced/glutathione oxidized ratio)” value ([4]; Cortex, 0.5 mg/kg) was 2.5, the reduced glutathione content ([4]; Cortex, 0.5 mg/kg) was 2.3 ± 0.1 mM and the “glutathione redox index (glutathione reduced/glutathione oxidized ratio)” value ([4]; Cortex, 1 mg/kg) was 2.3. The reduced glutathione content ([4]; Cortex, 1 mg/kg) was 2.6 ± 0.2 mM, the “glutathione redox index (glutathione reduced/glutathione oxidized ratio)” value ([4]; Hippocampus, 0.5 mg/kg) was 1.8 and the reduced glutathione content ([4]; Hippocampus, 0.5 mg/kg) was 2.0 ± 0.2 mM. The “glutathione redox index (glutathione reduced/glutathione oxidized ratio)” value ([4]; Hippocampus, 1 mg/kg) was 2.2, the reduced glutathione content ([4]; Hippocampus, 1 mg/kg) was 2.3 ± 0.3 mM and the “glutathione redox index (glutathione reduced/glutathione oxidized ratio)” value ([4]; Hypothalamus, 0.5 mg/kg) was 2.6. The reduced glutathione content ([4]; Hypothalamus, 0.5 mg/kg) was 2.8 ± 0.2 mM, the “glutathione redox index (glutathione reduced/glutathione oxidized ratio)” value ([4]; Hypothalamus, 1 mg/kg) was 2.7 and the reduced glutathione content ([4]; Hypothalamus, 1 mg/kg) was 2.7 ± 0.2 mM. For the same compound, the “glutathione redox index (glutathione reduced/glutathione oxidized ratio)” value ([4]; Striatum, 0.5 mg/kg) was 0.7, the reduced glutathione content ([4]; Striatum, 0.5 mg/kg) was 1.8 ± 0.2 mM and the “glutathione redox index (glutathione reduced/glutathione oxidized ratio)” value ([4]; Striatum, 1 mg/kg) was 0.7. It also gave a reduced glutathione content ([4]; Striatum, 1 mg/kg) of 1.7 ± 0.2 mM.
